Experimental data from PMC10298926, “Biophysical Characterization of the Binding Mechanism between the MATH Domain of SPOP and Its Physiological Partners” (International Journal of Molecular Sciences, 2023).
Where a SMILES comes first, the peptide text is derived from it.

Assays:
Test in all cases: Stopped-flow pseudo-first-order binding kinetics
[1] = biological target: SPOP MATH WT (Homo sapiens, UniProt O43791); conditions: 298 K
Protocol: To infer the mechanism of recognition of SPOP MATH, we resorted to performing time-resolved kinetic experiments. SPOP MATH was rapidly mixed with increasing concentrations of dansylated peptides (from 2 to 10 µM for Puc and MacroH2A, and from 2 to 40 µM for PTEN) in a stopped-flow apparatus at 298 K. The binding traces obtained by monitoring the time-resolved fluorescence were satisfactorily fitted to a single exponential equation, allowing calculating the observed rate constants kobs at different peptide concentrations. We then plotted the kobs values over the concentration of dansylated peptide and fitted the data to a simple linear function equation: kobs=kon Peptide+koff where kobs is the observed rate constant; kon and koff are the microscopic association and dissociation rate constants, respectively (Figure 2). The slope and y-axis intercept represent the microscopic association and dissociation rate constant, respectively. To minimize the error associated with the indirect measurement of the dissociation rate constant, we carried out displacement experiments to determine the koff values. The displacement experiments were designed by mixing the preformed complex SPOP MATH-dansylated peptides with a high excess of nondansylated peptide, as described in the Section 4. […] On the basis of these observations, it is possible to conclude that, in the case of binding to MacroH2A and PTEN, there is the presence of an additional step, which escapes detection by stopped-flow experiments and is likely to be negligible in the case of Puc. […] We note that such a case closely resembles the presence of a so-called burst phase, which is frequently observed in protein-folding studies.
(§1) Binding kinetic experiments were performed on an Applied Photophysics DX-17MV stopped-flow apparatus (Applied Photophysics, Leatherhead, UK). Pseudo-first-order binding experiments were performed by mixing a constant concentration (2 μM) of MATH domain with increasing dansylated peptides concentrations, from 2 to 10 μM of Puc and MacroH2A, and 2 to 40 µM of PTEN. The samples were excited at 280 nm, and the emission fluorescence was recorded by using a bandpass 320 nm cutoff filter. The experiments were performed at 298 K. For ionic strength dependence with Puc and MacroH2A, the buffers used were 50 mM sodium-HEPES, pH 7.2, supplemented with 50 mM, 100 mM, 200 mM, or 500 mM of sodium chloride (NaCl). For the PTEN binding salt dependence experiments, lower concentrations of salt were added for the previous buffer list mentioned (10 mM, 25 mM, and 50 mM of sodium chloride). For each acquisition, five traces were collected, averaged, and satisfactorily fitted to a single exponential equation.

[2] = biological target: SPOP MATH R71A (Homo sapiens, UniProt O43791, R70A, form not given); conditions: dansylated Puc, 298 K
Protocol: (§2) To quantitatively address the role of specific residues in the binding mechanism of SPOP MATH, we resorted to taking advantage of the site-directed mutagenesis and generated ten site-directed mutants corresponding to the residues located in the binding pocket of the SPOP MATH domain. In particular, we produced a set of single mutants where residues R71, Y88, F103, Y124, F125, K130, D131, W132, F134, and K135 were substituted with alanine.
as §1

[3] = biological target: T1, SPOP MATH K135A (Homo sapiens, UniProt O43791, C159S/C44S/C68S/C93S/K134A); conditions: dansylated Puc, 298 K
T1 construct: engineered MATH domain of SPOP protein (residues 1–182); His-tag; made in house; host or cells: Escherichia coli BL21 (DE3)
Protocol: as §2, §1

[4] = biological target: SPOP MATH F134A (Homo sapiens, UniProt O43791, F133A, form not given); conditions: dansylated Puc, 298 K
Protocol: as §2, §1

[5] = biological target: SPOP MATH D131A (Homo sapiens, UniProt O43791, D130A, form not given); conditions: dansylated Puc, 298 K
Protocol: as §2, §1

[6] = biological target: SPOP MATH K130A (Homo sapiens, UniProt O43791, K129A, form not given); conditions: dansylated Puc, 298 K
Protocol: as §2, §1

[7] = biological target: SPOP MATH Y88A (Homo sapiens, UniProt O43791, Y87A, form not given); conditions: dansylated Puc, 298 K
Protocol: as §2, §1

[8] = biological target: SPOP MATH Y125A (Homo sapiens, UniProt O43791, Y123A, form not given); conditions: dansylated Puc, 298 K
Protocol: as §2, §1

SPOP MATH WT, sequence (O43791 1-182): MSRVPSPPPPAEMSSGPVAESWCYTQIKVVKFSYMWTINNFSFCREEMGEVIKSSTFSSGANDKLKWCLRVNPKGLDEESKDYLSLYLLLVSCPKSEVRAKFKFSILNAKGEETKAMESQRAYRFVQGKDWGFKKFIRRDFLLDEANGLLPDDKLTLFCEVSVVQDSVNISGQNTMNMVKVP

CC(C)[C@H](NC(=O)[C@H](CCC(=O)O)NC(=O)[C@H](CC(=O)O)NS(=O)(=O)c1cccc2c(N(C)C)cccc12)C(=O)N[C@H](C(=O)N[C@@H](CO)C(=O)N[C@H](C(=O)N[C@H](C(=O)N[C@@H](CO)C(=O)N[C@@H](CO)C(=O)N[C@@H](CO)C(=O)O)[C@@H](C)O)[C@@H](C)O)[C@@H](C)O [Puc] (HELM PEPTIDE1{[CN(C)c1cccc2c(S(=O)(=O)[*:2])cccc12].D.E.V.T.S.T.T.S.S.S}$$$$V2.0)
Kd ([1]; read-out: Kinetics KD, WT, from kon (pseudo-first-order) and koff (displacement)): 1.4 ± 0.4 µM | kon ([1]; stopped-flow, 2 µM MATH domain, dansylated peptide 2 to 10 µM (Puc, MacroH2A) or 2 to 40 µM (PTEN), 50 mM sodium-HEPES, pH 7.2 (for ionic strength series), five traces averaged, slope of kobs vs peptide): 1.9e+07 ± 1e+06 M⁻¹ s⁻¹ | Kd ([2]; kinetic KD from kon and koff): 3.8 ± 0.1 µM | kon ([2]; stopped-flow, 2 µM MATH domain): 8.8e+06 ± 500000 M⁻¹ s⁻¹ | Kd ([3]; kinetic KD from kon and koff): 7.2 ± 0.4 µM | kon ([3]; stopped-flow, 2 µM MATH domain): 6.3e+06 ± 500000 M⁻¹ s⁻¹ | Kd ([4]; kinetic KD from kon and koff): 1.7 ± 0.1 µM | kon ([4]; stopped-flow, 2 µM MATH domain): 9.4e+06 ± 200000 M⁻¹ s⁻¹ | Kd ([5]; kinetic KD from kon and koff): 13.3 ± 0.2 µM | kon ([5]; stopped-flow, 2 µM MATH domain): 1.82e+07 ± 100000 M⁻¹ s⁻¹ | Kd ([6]; kinetic KD from kon and koff): 9.5 ± 0.1 µM | kon ([6]; stopped-flow, 2 µM MATH domain): 1.3e+07 ± 2e+06 M⁻¹ s⁻¹ | Kd ([7]; kinetic KD from kon and koff): 21 ± 4 µM | kon ([7]; stopped-flow, 2 µM MATH domain): 1.44e+07 ± 800000 M⁻¹ s⁻¹ | Kd ([8]; kinetic KD from kon and koff): 11.7 ± 0.2 µM | kon ([8]; stopped-flow, 2 µM MATH domain): 6.71e+06 ± 20000 M⁻¹ s⁻¹
